Laboratory results as given in patent publication US20070037193A1, “Modulation of peroxisome proliferator-activated receptors” (priority 2005, published 2007).

Columns and labels:
Human PGR3/ZADH2 = target: T1, Human PGR3/ZADH2 (Homo sapiens, UniProt Q8N4Q0); test: PGR3/ZADH2 enzyme inhibition assay (reduction of 15-keto-PGE2, NADPH consumption); assay type: biochemical; details: 50 μM compound, No Inhibitor = 100
T1 construct: GST; made in house; host or cells: E. coli
T1 sequence (Q8N4Q0 1-377): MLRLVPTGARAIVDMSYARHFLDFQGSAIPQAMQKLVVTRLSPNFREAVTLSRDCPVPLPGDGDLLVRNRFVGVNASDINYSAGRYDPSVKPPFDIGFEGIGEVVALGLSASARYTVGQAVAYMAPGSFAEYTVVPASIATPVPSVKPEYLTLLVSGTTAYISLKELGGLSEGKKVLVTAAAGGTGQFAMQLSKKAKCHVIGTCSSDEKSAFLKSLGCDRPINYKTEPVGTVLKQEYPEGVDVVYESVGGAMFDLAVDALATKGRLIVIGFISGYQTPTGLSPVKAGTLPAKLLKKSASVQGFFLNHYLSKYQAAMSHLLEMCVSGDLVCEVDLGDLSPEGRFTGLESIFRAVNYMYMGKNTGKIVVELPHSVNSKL
Experimental: (§1) Enzymatic activity was determined as follows. 10 μg of the recombinant mouse or human PGR3/ZADH2 protein was incubated at 37° C. in a reaction buffer containing 0.1IM Tris-HCl (pH7.4), 0.5 mM NADPH, and 0.57 mM 15-keto PGE2. The reaction was conducted at 37° C. in the dark for 10 minutes and terminated by adding 700 μl of a buffer which contained 50 mM potassium hydrogen phthalate, pH 3.0, and 1% Tween 20. 200 μl of a color development reagent, which contained 790 μM indonitrotetrazolium chloride, 60 μM phenazene methosulfate, and 1% Tween 20, was added to oxidize any unreacted NADPH. Absorbance at 490 nm was measured by an ELISA plate reader. A standard curve was generated using reaction buffers containing serially diluted amounts of NADPH.
(§2) Compounds 1-49 were tested for their inhibitory effects on PGR3/ZADH2 activity. These compounds are either commercially available (e.g., from Sigma-Aldrich, St. Louis, Mo.) or can be prepared from methods known in the art. The inhibition assay was performed following the procedure described above. Different concentrations of PGR3/ZADH2 inhibitors were added to the reaction mixture and incubated for 2 hours at 37° C.
(§3) More specifically, 50 μM of compounds 8, 12, 13, and 27, and 25 μM of tri-fluorobenzyl-2-hydroxycinnamate (compound 22) were added to the PGR3/ZADH2 enzyme reaction system and the ability of enzyme to reduce 15-keto-PGE2 were measured.

Mouse PGR3/ZADH2 = target: T2, Mouse PGR3/ZADH2 (Mus musculus, UniProt Q8BGC4); test: as above; assay type: biochemical; details: 50 μM compound, No Inhibitor = 100
T2 construct: GST; made in house; host or cells: E. coli
T2 sequence (Q8BGC4 1-377): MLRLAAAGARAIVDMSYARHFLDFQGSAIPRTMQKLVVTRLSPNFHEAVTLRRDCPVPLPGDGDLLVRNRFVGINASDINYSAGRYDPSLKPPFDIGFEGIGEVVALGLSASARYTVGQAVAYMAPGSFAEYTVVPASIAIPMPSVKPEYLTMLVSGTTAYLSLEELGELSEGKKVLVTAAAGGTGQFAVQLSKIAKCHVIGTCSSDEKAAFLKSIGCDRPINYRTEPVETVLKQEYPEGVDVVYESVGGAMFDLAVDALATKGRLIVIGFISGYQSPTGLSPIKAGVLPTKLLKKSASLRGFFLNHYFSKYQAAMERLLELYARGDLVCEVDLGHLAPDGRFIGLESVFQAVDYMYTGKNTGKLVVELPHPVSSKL
Experimental: as §1, §2, §3

3T3-L1 cells = test: Adipogenesis in 3T3-L1 cells, oil-red O staining of lipid droplets; assay type: cell-based; details: 14 μM from day 2 to 4; staining at day 6
Experimental: (§4) The effect of prostaglandin on PPAR-gamma activity in adipocytes was investigated. After treatment with a medium that induces cell differentiation, 3T3-L1 cells were treated from day 2 to 4 during adipogenesis with 14 μM 15-keto PGE2, 13,14-dihydro-15-keto PGE2, 15-keto PGF2α, 13,14-dihydro-15-keto PGF2α, or 4.5 μM of BRL49653, a PPAR-gamma agonist. See Forman et al., Cell (1995) 83:803-812. At day 6, aggregates of lipid droplets were stained with oil-red O for observation. […] After being induced to differentiate for two days, the 3T3-L1 cells were transfected with a reporter gene.

PPAR-gamma target genes = test: Protein expression of adipogenesis-specific PPAR-gamma target genes in 3T3-L1 cells; assay type: cell-based
From the text: Also examined was the ability of 15-keto PGE2 to induce protein expression of adipogenesis-specific, PPAR-gamma target genes, i.e., IRS-1 and -2.

endogenous PPAR = test: Reporter gene assay of endogenous PPAR activity in differentiating 3T3-L1 cells; assay type: cell-based; details: 3T3-L1 cells induced to differentiate for two days
Experimental: as §4

PPAR-gamma = target: T3, PPAR-gamma (Homo sapiens, UniProt P37231); test: GAL4-PPAR ligand-binding domain luciferase reporter in 3T3-L1 cells; assay type: cell-based
T3 construct: expressed in transfected cells; host or cells: 3T3-L1 cells
T3 sequence (P37231 238-503 limits assumed): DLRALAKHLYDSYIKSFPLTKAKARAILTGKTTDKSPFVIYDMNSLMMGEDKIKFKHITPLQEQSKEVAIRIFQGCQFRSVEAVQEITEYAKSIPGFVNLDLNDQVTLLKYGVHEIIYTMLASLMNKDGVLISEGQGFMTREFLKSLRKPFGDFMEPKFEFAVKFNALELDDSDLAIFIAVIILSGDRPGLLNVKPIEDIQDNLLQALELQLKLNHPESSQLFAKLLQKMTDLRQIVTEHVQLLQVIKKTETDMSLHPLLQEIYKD
From the text: A luciferase reporter gene was transfected to 3T3-L1 cells together with the ligand-binding domain of PPAR-alpha, PPAR-gamma or PPAR-delta fused to a yeast GAL4 DNA-binding domain.

PGR3/ZADH2 = test: Substrate specificity of PGR3/ZADH2; assay type: biochemical; details: 15-keto PGE2 replaced with the test substrate
Experimental: as §1
Substrate specificity of PGR3/ZADH2 was determined using the just-described procedure, except that 15-keto PGE2 was replaced with each of six prostaglandin substrates, each of three downstream metabolites, or leukotriene B4.

For `O=c1c(O)c(-c2ccccc2)oc2cc(O)cc(O)c12` [Compound 8], which activity at 50 µM (Human PGR3/ZADH2) is on record?
The activity at 50 µM was 25.6%.

And the activity at 50 µM (Mouse PGR3/ZADH2)?
The activity at 50 µM was 11.4%.

Which “adipogenesis (lipid droplets, oil-red O)” value (3T3-L1 cells) does the source give for `CCCCCC(=O)/C=C/[C@H]1[C@H](O)CC(=O)[C@@H]1C/C=C\CCCC(=O)O` [15-keto PGE2] here?
Its value is “effectively enhanced adipogenesis at a level similar to BRL49653”.

What about the “amount of IRS-1 protein” value (PPAR-gamma target genes) of the same compound?
Its value is “did not increase the amount of IRS-1 protein”.

What about the “PPAR-gamma1 and PPAR-gamma2 protein expression” value (PPAR-gamma target genes; added with MIX, insulin and dexamethasone) of the same compound?
The value was “significantly enhanced PPAR-gammal and PPAR-gamma2 expression”.

And the “expression of aP2” value (PPAR-gamma target genes; even in the absence of MIX)?
Its value is “strongly induced expression of aP2”.

And the IRS-2 expression (PPAR-gamma target genes; in the presence of insulin and dexamethasone)?
Its IRS-2 expression is “enhanced the expression to a level similar to MIX”.

What about the “endogenous PPAR activity (reporter gene)” value (endogenous PPAR) of the same compound?
Its value is “enhanced endogenous PPAR activity significantly”.

And the “activation of PPAR-gamma (GAL4 fusion, luciferase reporter)” value (PPAR-gamma)?
The value was “activated PPAR-gamma”.

Which “specific activity as substrate of PGR3/ZADH2” value (PGR3/ZADH2) does the source give for `CCCCC[C@H](O)/C=C/[C@@H]1[C@@H](CC(=O)CCCCC(=O)O)[C@@H](O)C[C@H]1O` [6-keto PGF1α] here?
Its value is “no specific activity was detected”.

Which results are given for `COc1cc(/C=C/C(=O)c2cc(Br)ccc2O)cc(OC)c1OC` [Compound 13]?
activity at 50 µM (Human PGR3/ZADH2): 51.1%; activity at 50 µM (Mouse PGR3/ZADH2): 37.1%

How did the “specific activity as substrate of PGR3/ZADH2” value (PGR3/ZADH2) turn out when `CCCCCC(=O)CC[C@@H]1[C@@H](C/C=C\CCCC(=O)O)[C@@H](O)C[C@H]1O` [13,14-dihydro-15-keto PGF2α] was run?
The value was “no specific activity was detected”.

And the “endogenous PPAR activity (reporter gene)” value (endogenous PPAR)?
The value was “failed to increase PPAR activity”.

Which “specific activity as substrate of PGR3/ZADH2” value (PGR3/ZADH2) does the source give for `CCCCCC(=O)CC[C@H]1[C@H](O)CC(=O)[C@@H]1C/C=C\CCCC(=O)O` [13,14-dihydro-15-keto PGE2] here?
The value was “no specific activity was detected”.

What about the “endogenous PPAR activity (reporter gene)” value (endogenous PPAR) of the same compound?
The value was “failed to increase PPAR activity”.

`CCCCC[C@H](O)/C=C/[C@@H]1[C@@H](C/C=C\CCCC(=O)O)[C@@H](O)C[C@@H]1O` [Compound 11b-PGF2α, 11b-PGF2α] was tested. Which “specific activity as substrate of PGR3/ZADH2” value (PGR3/ZADH2) did it give?
Its value is “no specific activity was detected”.

Which “specific activity as substrate of PGR3/ZADH2” value (PGR3/ZADH2) does the source give for `CCCCC/C=C\C[C@@H](O)/C=C/C=C/C=C\[C@@H](O)CCCC(=O)O` [leukotriene B4] here?
The value was “no specific activity was detected”.

Which activity at 50 µM (Human PGR3/ZADH2) does the source give for `O=c1c(O)c(-c2ccc(O)c(O)c2)oc2ccccc12` [Compound 27] here?
The activity at 50 µM was 91.1%.

And the activity at 50 µM (Mouse PGR3/ZADH2)?
Its activity at 50 µM is 87.4%.

With `CCCCCC(=O)/C=C/[C@H]1[C@H](O)CC(=O)[C@@H]1CCCCCCC(=O)O` [15-keto PGE1] as the compound, how does the “specific activity as substrate of PGR3/ZADH2” value (PGR3/ZADH2) read?
Its value is “reacted specifically”.

`CCCCC[C@H](O)/C=C/[C@@H]1[C@@H](C/C=C\CCCC(=O)O)[C@H](O)C[C@H]1O` [PGF2β] was tested. Which “specific activity as substrate of PGR3/ZADH2” value (PGR3/ZADH2) did it give?
Its value is “no specific activity was detected”.

`CCCCCC(=O)/C=C/[C@@H]1[C@@H](C/C=C\CCCC(=O)O)[C@@H](O)C[C@H]1O` [15-keto PGF2α] was tested. Which “specific activity as substrate of PGR3/ZADH2” value (PGR3/ZADH2) did it give?
Its value is “reacted specifically”.

And the “endogenous PPAR activity (reporter gene)” value (endogenous PPAR)?
Its value is “enhanced endogenous PPAR activity significantly”.

And the “activation of PPAR-gamma (GAL4 fusion, luciferase reporter)” value (PPAR-gamma)?
The value was “activated PPAR-gamma”.

With `CCCCCC(=O)CCC1C(=O)CC(O)C1C/C=C\CCCC(=O)O` (centres unmarked) [13,14-dihydro-15-keto PGD2] as the compound, how does the “specific activity as substrate of PGR3/ZADH2” value (PGR3/ZADH2) read?
Its value is “no specific activity was detected”.

How did the activity at 50 µM (Human PGR3/ZADH2) turn out when `COc1cc(/C=C/C(=O)c2ccccc2O)cc(OC)c1OC` [Compound 12] was run?
Its activity at 50 µM is 27.5%.

And the activity at 50 µM (Mouse PGR3/ZADH2)?
Its activity at 50 µM is 6.4%.

For `CCCCCC(=O)/C=C/[C@@H]1[C@@H](CCCCCCC(=O)O)[C@@H](O)C[C@H]1O` [15-keto PGF1αL, 15-keto PGF1α], which “specific activity as substrate of PGR3/ZADH2” value (PGR3/ZADH2) is on record?
Its value is “reacted specifically”.
